{"source": "patent US7329659B2", "about": "“Substituted-1-phthalazinamines as vr-1 antagonists” (Merck Sharp & Dohme Limited, priority 2003, dated 2008)", "origin": "cited, not measured here", "target": "VR1 (Rattus norvegicus, UniProt O35433)", "sequence (O35433 whole entry)": "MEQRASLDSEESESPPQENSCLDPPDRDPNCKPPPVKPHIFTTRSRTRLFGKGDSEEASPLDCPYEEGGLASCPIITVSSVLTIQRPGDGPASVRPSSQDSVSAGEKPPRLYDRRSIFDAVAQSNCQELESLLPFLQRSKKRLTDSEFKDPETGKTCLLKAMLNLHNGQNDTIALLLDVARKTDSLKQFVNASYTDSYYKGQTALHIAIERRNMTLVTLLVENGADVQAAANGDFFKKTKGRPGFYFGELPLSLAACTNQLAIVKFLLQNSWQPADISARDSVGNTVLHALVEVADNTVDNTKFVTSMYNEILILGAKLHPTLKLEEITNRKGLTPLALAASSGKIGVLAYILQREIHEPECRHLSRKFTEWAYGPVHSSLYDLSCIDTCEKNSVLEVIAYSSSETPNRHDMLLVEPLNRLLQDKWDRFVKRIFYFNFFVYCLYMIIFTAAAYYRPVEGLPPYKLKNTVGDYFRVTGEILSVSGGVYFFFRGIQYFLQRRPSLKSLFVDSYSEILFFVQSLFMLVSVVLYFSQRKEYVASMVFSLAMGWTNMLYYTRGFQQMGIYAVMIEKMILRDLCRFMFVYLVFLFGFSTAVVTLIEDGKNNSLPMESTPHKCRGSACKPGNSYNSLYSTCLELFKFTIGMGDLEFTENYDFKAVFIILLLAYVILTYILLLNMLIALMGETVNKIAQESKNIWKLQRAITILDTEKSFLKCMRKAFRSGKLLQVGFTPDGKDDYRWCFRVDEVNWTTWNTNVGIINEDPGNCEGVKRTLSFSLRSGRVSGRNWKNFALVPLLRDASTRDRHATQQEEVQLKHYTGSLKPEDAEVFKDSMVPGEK", "settings": "Wahl et al., Mol. Pharmacol., 59:9, 2001", "data": [{"compound": "C=C(C)[C@]12C[C@@H](C)[C@@]34O[C@](Cc5ccccc5)(O[C@@H]1[C@@H]3C=C(COC(=O)Cc1cc(I)c(O)c(OC)c1)C[C@]1(O)C(=O)C(C)=C[C@@H]41)O2", "note": "[Iodo-resiniferatoxin]", "values": [{"measurement": "VR1 antagonist potency (in words)", "value": "nanomolar antagonist of VR1"}]}]}
